Source: US6686361B2, “R-6-hydroxy-buspirone” (Bristol-Myers Squibb Company, priority 2001, dated 2004)

Tests used:
[1] = system: rat pup ultrasonic vocalizations; experiment: Rat pup isolation-induced ultrasonic vocalization test; assay type: in vivo; details: rat pups; for anxiolytic activity (ultrasonic vocalizations): 0.3 and 1 mg/kg s.c.
Procedure: Harlan Sprague-Dawley rat pups (male and female) were housed in polycarbonate cages with the dam until 9-11 days old. Thirty minutes before testing, pups were removed from the dam, placed into a new cage with a small amount of home bedding and brought into the lab and placed under a light to maintain body temperature at 37° C. Pups were then weighed, sexed, marked and returned to the litter group until behavioral assessment. Testing took place in a Plexiglas recording chamber that contained a metal plate maintained at (18-20° C.) with a 5×5 cm grid drawn on the plate. A microphone was suspended 10 cm above the plate to record ultrasonic vocalizations. Ultrasonic calls were recorded using the Noldus UltraVox system providing online analysis of the frequency and duration of calls. The number of grid cells entered by the pup was also collected by visual scoring. […] Immediately following the collection of the baseline measures, pups were injected with vehicle or drug subcutaneously at the nape of the neck and returned to its littermates. Thirty minutes later, pups were retested on each of the dependent measures (vocalization and grid cell crossings) to assess drug effects. Unless otherwise specified, each pup was used only once. Baseline differences and percent change from baseline for the frequency of ultrasonic vocalizations and grid cell crossings were analyzed using a one-way ANOVA. Bonferroni/Dunn post hoc comparisons were performed to assess the acute drug effects with vehicle control. Log-probit analysis was used to estimate the dose (milligrams per kilogram) of each agonist predicted to inhibit isolation-induced ultrasonic vocalizations by 50% (ID50). All comparison were made with an experimental type I error rate (α) set at 0.05.
Doses for each drug were administered in an irregular order across several litters. R-6-hydroxy-buspirone and racemic 6-hydroxy-buspirone were dissolved in physiological saline (0.9% NaCl; vehicle). All injections were administered subcutaneously in a volume of 10 ml/kg. Doses of the drug refer to weight of the salt.

[2] = biological target: T1, human 5-HT1A receptor (Homo sapiens, UniProt P08908); details: preclinical studies, background; cited from earlier work
T1 construct: expressed in transfected cells; host or cells: HEK293
T1 sequence (P08908 1-422): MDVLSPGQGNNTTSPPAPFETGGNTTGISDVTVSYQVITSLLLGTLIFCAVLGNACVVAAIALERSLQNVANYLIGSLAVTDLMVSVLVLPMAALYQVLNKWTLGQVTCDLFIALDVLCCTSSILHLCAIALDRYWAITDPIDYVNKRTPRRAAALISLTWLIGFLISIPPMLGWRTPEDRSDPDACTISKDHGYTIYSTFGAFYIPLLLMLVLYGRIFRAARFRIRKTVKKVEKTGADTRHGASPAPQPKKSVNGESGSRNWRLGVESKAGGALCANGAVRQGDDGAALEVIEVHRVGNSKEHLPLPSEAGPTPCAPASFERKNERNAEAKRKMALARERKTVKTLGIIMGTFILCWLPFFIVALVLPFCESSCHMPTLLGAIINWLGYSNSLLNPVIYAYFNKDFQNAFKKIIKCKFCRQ

[3] = system: rat pup ultrasonic vocalizations; details: functional testing, background; cited from earlier work
[4] = biological target: T1, human 5-HT1A receptor; experiment: 5-HT1A receptor binding assay; details: human 5-HT1A receptor expressed in HEK293 cells, 3H-8-OH-DPAT
Procedure: Membranes are prepared for binding using the human 5-HT1 A receptor expressed in HEK293 cells. Cells are collected and ruptured using a dounce homogenizer. The cells are spun at 18000×g for 10 minutes and the pellet is resuspended in assay buffer, frozen in liquid nitrogen and kept at −80° C. until the day of the assay.
A total of 30 ug protein is used per well. The assay is carried out in 96-deep-well plates. The assay buffer is 50 mM HEPES containing 2.5 mM MgCl2 and 2 mM EGTA. The membrane preparation is incubated at 25° C. for 60 minutes with 0.1 nM to 1000 nM test compound and 1 nM 3H-8-OH-DPAT. […] serotonin serves as blocking agent to determine non-specific binding. The reaction is terminated by the addition of 1 ml of ice cold 50 mM HEPES buffer and rapid filtration through a Brandel Cell Harvester using Whatman GF/B filters. The filter pads are counted in an LKB Trilux liquid scintillation counter. IC50 values are determined using non-linear regression by Excel-fit.

[5] = biological target: D2(h) (Homo sapiens, UniProt P14416); experiment: Receptor binding, D2(h)
D2(h), sequence (P14416 whole entry): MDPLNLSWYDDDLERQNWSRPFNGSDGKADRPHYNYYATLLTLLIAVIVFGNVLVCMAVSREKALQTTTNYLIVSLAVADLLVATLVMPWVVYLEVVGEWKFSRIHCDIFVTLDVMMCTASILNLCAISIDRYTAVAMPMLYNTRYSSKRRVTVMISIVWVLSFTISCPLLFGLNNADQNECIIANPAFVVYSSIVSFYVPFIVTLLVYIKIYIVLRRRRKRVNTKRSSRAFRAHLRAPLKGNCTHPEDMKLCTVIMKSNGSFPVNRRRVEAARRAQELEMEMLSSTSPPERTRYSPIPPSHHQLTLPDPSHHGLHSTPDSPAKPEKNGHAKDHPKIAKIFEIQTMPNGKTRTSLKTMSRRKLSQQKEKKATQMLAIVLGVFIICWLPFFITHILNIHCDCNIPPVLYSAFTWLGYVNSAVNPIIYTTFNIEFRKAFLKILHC

Row | Ki [4] [nM] | Ki [5] [nM] | Structure (SMILES) | anxiolytic activity (ultrasonic vocalizations) [1] | animal movement, measured by crossing grid boundary lines ([1]; compared to animals dosed with the single enantiomer) | affinity for the human 5-HT1A receptor [2] | anxiolytic response in the rat pup ultrasonic vocalization test [3]
1 |  |  | O=C1CC2(CCCC2)C(O)C(=O)N1CCCCN1CCN(c2ncccn2)CC1 (racemic) [6-hydroxy-buspirone] | Statistically significant anxiolytic activity | appeared to be reduced | strong affinity | dose-dependent anxiolytic response
2 | 14 | 2870 | O=C1CC2(CCCC2)[C@@H](O)C(=O)N1CCCCN1CCN(c2ncccn2)CC1 [R-6-hydroxy-buspirone] | Statistically significant anxiolytic activity |  |  | 
3 | 24 | 1300 | O=C1CC2(CCCC2)[C@H](O)C(=O)N1CCCCN1CCN(c2ncccn2)CC1 [S-6-hydroxy-buspirone] |  |  |  | 
